# PubChem BioAssay (NCI)
#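 Protocol summary: plate cells (96-well), add compound at 5 concentrations, incubate 48 h, interpolate endpoints linearly. Here, GI50 denotes the concentration required for 50% inhibition of growth. Definition used: TGI = concentration required for complete inhibition of growth.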
# Legend:
# Experiment in all cases: NCI tumour cell line growth inhibition, 48 h
# SK-MEL-2 melanoma = system: SK-MEL-2 melanoma
# SW-620 colon = system: SW-620 colon
# UACC-62 melanoma = system: UACC-62 melanoma
# OVCAR-4 ovarian = system: OVCAR-4 ovarian
# MCF7 breast = system: MCF7 breast
# IGROV1 ovarian = system: IGROV1 ovarian
# MDA-MB-231 breast = system: MDA-MB-231 breast
# BT-549 breast = system: BT-549 breast
# SF-539 CNS = system: SF-539 CNS
# CAKI-1 renal = system: CAKI-1 renal
# NCI-H522 lung = system: NCI-H522 lung
# MOLT-4 leukemia = system: MOLT-4 leukemia
# SK-OV-3 ovarian = system: SK-OV-3 ovarian
# A498 renal = system: A498 renal
# HS 578T breast = system: HS 578T breast
# T-47D breast = system: T-47D breast
# HCT-15 colon = system: HCT-15 colon
# PC-3 prostate = system: PC-3 prostate
# SF-268 CNS = system: SF-268 CNS
# NCI/ADR-RES ovarian = system: NCI/ADR-RES ovarian
# NCI-H23 lung = system: NCI-H23 lung
# HL-60(TB) leukemia = system: HL-60(TB) leukemia
# SR leukemia = system: SR leukemia
# HT29 colon = system: HT29 colon
# CCRF-CEM leukemia = system: CCRF-CEM leukemia
# SNB-19 CNS = system: SNB-19 CNS
# SK-MEL-28 melanoma = system: SK-MEL-28 melanoma
# SF-295 CNS = system: SF-295 CNS
# DU-145 prostate = system: DU-145 prostate
# SN12C renal = system: SN12C renal
# HCC-2998 colon = system: HCC-2998 colon
# UO-31 renal = system: UO-31 renal
# NCI-H226 lung = system: NCI-H226 lung
# TK-10 renal = system: TK-10 renal
# RXF 393 renal = system: RXF 393 renal
# COLO 205 colon = system: COLO 205 colon
# U251 CNS = system: U251 CNS
# MDA-MB-435 = system: MDA-MB-435
# K-562 leukemia = system: K-562 leukemia
# LOX IMVI melanoma = system: LOX IMVI melanoma
# HCT-116 colon = system: HCT-116 colon
# M14 melanoma = system: M14 melanoma
# OVCAR-5 ovarian = system: OVCAR-5 ovarian
# HOP-62 NSCLC = system: HOP-62 NSCLC
# OVCAR-8 ovarian = system: OVCAR-8 ovarian
# RPMI-8226 leukemia = system: RPMI-8226 leukemia
# SNB-75 CNS = system: SNB-75 CNS
# NCI-H460 lung = system: NCI-H460 lung
# ACHN renal = system: ACHN renal
# HOP-92 NSCLC = system: HOP-92 NSCLC
# SK-MEL-5 melanoma = system: SK-MEL-5 melanoma
# 786-0 renal = system: 786-0 renal
# MALME-3M melanoma = system: MALME-3M melanoma
# KM12 colon = system: KM12 colon
# OVCAR-3 ovarian = system: OVCAR-3 ovarian
# A549 NSCLC = system: A549 NSCLC
# UACC-257 melanoma = system: UACC-257 melanoma
structure (smiles),measurement,setting,value
OCc1ccc(N2CCCC2c2ccccc2)cc1Cl (centres undefined),GI50,SK-MEL-2 melanoma,2.31 µM
same,TGI,SK-MEL-2 melanoma,6.97 µM
same,GI50,SW-620 colon,2.8 µM
same,TGI,SW-620 colon,27.7 µM
same,GI50,UACC-62 melanoma,0.665 µM
same,TGI,UACC-62 melanoma,4.01 µM
same,GI50,OVCAR-4 ovarian,1.39 µM
same,TGI,OVCAR-4 ovarian,14.2 µM
same,GI50,MCF7 breast,1.42 µM
same,TGI,MCF7 breast,13.2 µM
same,GI50,IGROV1 ovarian,0.187 µM
same,TGI,IGROV1 ovarian,0.813 µM
same,GI50,MDA-MB-231 breast,5.58 µM
same,TGI,MDA-MB-231 breast,24.9 µM
same,GI50,BT-549 breast,7.12 µM
same,TGI,BT-549 breast,18.7 µM
same,GI50,SF-539 CNS,8.77 µM
same,TGI,SF-539 CNS,21.8 µM
same,GI50,CAKI-1 renal,2.83 µM
same,TGI,CAKI-1 renal,17.4 µM
same,GI50,NCI-H522 lung,5.18 µM
same,TGI,NCI-H522 lung,18.6 µM
same,GI50,MOLT-4 leukemia,4.75 µM
same,TGI,MOLT-4 leukemia,24.9 µM
same,GI50,SK-OV-3 ovarian,2.89 µM
same,TGI,SK-OV-3 ovarian,13 µM
same,GI50,A498 renal,0.136 µM
same,TGI,A498 renal,0.306 µM
same,GI50,HS 578T breast,7.4 µM
same,TGI,HS 578T breast,30.8 µM
same,GI50,T-47D breast,0.358 µM
same,TGI,T-47D breast,4.71 µM
same,GI50,HCT-15 colon,4.24 µM
same,TGI,HCT-15 colon,20 µM
same,GI50,PC-3 prostate,8.41 µM
same,TGI,PC-3 prostate,29 µM
same,GI50,SF-268 CNS,13.2 µM
same,TGI,SF-268 CNS,49.5 µM
same,GI50,NCI/ADR-RES ovarian,3.54 µM
same,TGI,NCI/ADR-RES ovarian,17.7 µM
same,GI50,NCI-H23 lung,5.51 µM
same,TGI,NCI-H23 lung,30 µM
same,GI50,HL-60(TB) leukemia,3.07 µM
same,TGI,HL-60(TB) leukemia,11.1 µM
same,GI50,SR leukemia,3.13 µM
same,TGI,SR leukemia,17.2 µM
same,GI50,HT29 colon,3.37 µM
same,TGI,HT29 colon,14.3 µM
same,GI50,CCRF-CEM leukemia,6.44 µM
same,TGI,CCRF-CEM leukemia,39.7 µM
same,GI50,SNB-19 CNS,13.5 µM
same,TGI,SNB-19 CNS,> 84 µM
same,GI50,SK-MEL-28 melanoma,8.16 µM
same,TGI,SK-MEL-28 melanoma,24.6 µM
same,GI50,SF-295 CNS,2.34 µM
same,TGI,SF-295 CNS,7.77 µM
same,GI50,DU-145 prostate,12.3 µM
same,TGI,DU-145 prostate,30.8 µM
same,GI50,SN12C renal,8.22 µM
same,TGI,SN12C renal,21.7 µM
same,GI50,HCC-2998 colon,4.88 µM
same,TGI,HCC-2998 colon,17.5 µM
same,GI50,UO-31 renal,9.28 µM
same,TGI,UO-31 renal,27.4 µM
same,GI50,NCI-H226 lung,0.126 µM
same,TGI,NCI-H226 lung,0.325 µM
same,GI50,TK-10 renal,0.195 µM
same,TGI,TK-10 renal,1.27 µM
same,GI50,RXF 393 renal,3.2 µM
same,TGI,RXF 393 renal,15.2 µM
same,GI50,COLO 205 colon,3.26 µM
same,TGI,COLO 205 colon,11.8 µM
same,GI50,U251 CNS,2.35 µM
same,TGI,U251 CNS,13.3 µM
same,GI50,MDA-MB-435,1.74 µM
same,TGI,MDA-MB-435,4.18 µM
same,GI50,K-562 leukemia,2.33 µM
same,TGI,K-562 leukemia,10.6 µM
same,GI50,LOX IMVI melanoma,9.67 µM
same,TGI,LOX IMVI melanoma,22.5 µM
same,GI50,HCT-116 colon,0.744 µM
same,TGI,HCT-116 colon,10.6 µM
same,GI50,M14 melanoma,5.24 µM
same,TGI,M14 melanoma,21.3 µM
same,GI50,OVCAR-5 ovarian,0.351 µM
same,TGI,OVCAR-5 ovarian,1.52 µM
same,GI50,HOP-62 NSCLC,3.69 µM
same,TGI,HOP-62 NSCLC,15.8 µM
same,GI50,OVCAR-8 ovarian,8.18 µM
same,TGI,OVCAR-8 ovarian,30.3 µM
same,GI50,RPMI-8226 leukemia,4.36 µM
same,TGI,RPMI-8226 leukemia,23.6 µM
same,GI50,SNB-75 CNS,3.28 µM
same,TGI,SNB-75 CNS,29 µM
same,GI50,NCI-H460 lung,0.833 µM
same,TGI,NCI-H460 lung,7.22 µM
same,GI50,ACHN renal,11.7 µM
same,TGI,ACHN renal,26.9 µM
same,GI50,HOP-92 NSCLC,2.06 µM
same,TGI,HOP-92 NSCLC,9.28 µM
same,GI50,SK-MEL-5 melanoma,3.33 µM
same,TGI,SK-MEL-5 melanoma,9.36 µM
same,GI50,786-0 renal,11.5 µM
same,TGI,786-0 renal,28.4 µM
same,GI50,MALME-3M melanoma,9.73 µM
same,TGI,MALME-3M melanoma,28.2 µM
same,GI50,KM12 colon,4.17 µM
same,TGI,KM12 colon,19.4 µM
same,GI50,OVCAR-3 ovarian,2.3 µM
same,TGI,OVCAR-3 ovarian,10.1 µM
same,GI50,A549 NSCLC,2.87 µM
same,TGI,A549 NSCLC,14.9 µM
same,GI50,UACC-257 melanoma,0.544 µM
same,TGI,UACC-257 melanoma,2.11 µM
